Legend:
Assay type in all cases: biochemical
TEC = target: T1, TEC (Homo sapiens, UniProt P42680); test: Inhibition of a panel of kinases, in vitro HotSpot kinase assay: TEC; conditions: D-compounds panel data; 1 μM ATP
T1 sequence (P42680 1-631): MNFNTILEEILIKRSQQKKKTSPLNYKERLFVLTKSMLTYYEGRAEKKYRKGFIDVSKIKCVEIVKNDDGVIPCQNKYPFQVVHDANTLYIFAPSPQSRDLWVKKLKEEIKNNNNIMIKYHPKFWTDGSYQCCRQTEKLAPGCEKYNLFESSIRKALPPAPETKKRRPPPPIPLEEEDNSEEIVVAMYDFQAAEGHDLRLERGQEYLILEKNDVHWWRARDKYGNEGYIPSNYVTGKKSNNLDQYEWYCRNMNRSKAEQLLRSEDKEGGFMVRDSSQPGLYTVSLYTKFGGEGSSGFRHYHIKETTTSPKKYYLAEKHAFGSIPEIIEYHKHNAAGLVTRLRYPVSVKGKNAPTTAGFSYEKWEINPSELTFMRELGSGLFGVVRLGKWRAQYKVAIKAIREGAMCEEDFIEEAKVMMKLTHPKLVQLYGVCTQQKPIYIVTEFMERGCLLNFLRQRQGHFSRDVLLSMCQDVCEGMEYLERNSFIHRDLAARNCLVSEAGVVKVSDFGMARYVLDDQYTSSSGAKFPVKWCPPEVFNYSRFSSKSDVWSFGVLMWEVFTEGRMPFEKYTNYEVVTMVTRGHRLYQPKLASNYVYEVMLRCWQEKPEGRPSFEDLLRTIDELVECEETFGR
Method: (§1) The degree of inhibition of a panel of kinases is determined using the in vitro HotSpot kinase assay (purified enzymes, ^33P-ATP, an appropriate substrate and 1 μM ATP).

ITK = target: T2, ITK (Homo sapiens, UniProt Q08881); test: Inhibition of a panel of kinases, in vitro HotSpot kinase assay: ITK; conditions: D-compounds panel data; 1 μM ATP
T2 sequence (Q08881 1-620): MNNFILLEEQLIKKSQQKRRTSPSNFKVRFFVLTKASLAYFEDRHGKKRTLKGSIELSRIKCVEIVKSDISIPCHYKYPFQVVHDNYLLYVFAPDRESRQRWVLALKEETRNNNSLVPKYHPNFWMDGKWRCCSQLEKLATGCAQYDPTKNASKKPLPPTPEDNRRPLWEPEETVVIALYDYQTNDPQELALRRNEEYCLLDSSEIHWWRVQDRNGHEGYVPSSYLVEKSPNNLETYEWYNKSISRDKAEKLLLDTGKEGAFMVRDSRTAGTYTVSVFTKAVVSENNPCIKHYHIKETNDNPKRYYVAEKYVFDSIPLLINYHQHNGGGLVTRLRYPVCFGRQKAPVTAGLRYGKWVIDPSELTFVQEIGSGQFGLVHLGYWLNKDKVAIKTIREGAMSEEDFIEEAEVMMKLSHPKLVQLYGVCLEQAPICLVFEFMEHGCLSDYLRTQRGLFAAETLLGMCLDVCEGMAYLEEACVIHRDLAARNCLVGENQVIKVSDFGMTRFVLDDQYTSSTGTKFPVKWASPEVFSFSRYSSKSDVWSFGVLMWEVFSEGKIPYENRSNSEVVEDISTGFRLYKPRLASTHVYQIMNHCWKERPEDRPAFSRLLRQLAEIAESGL
Method: as §1

LCK = LCK (Homo sapiens, UniProt P06239); test: Inhibition of a panel of kinases, in vitro HotSpot kinase assay: LCK; conditions: D-compounds panel data; 1 μM ATP; read-out: IC50 LCK
SRC = SRC (Homo sapiens, UniProt P12931); test: Inhibition of a panel of kinases, in vitro HotSpot kinase assay: SRC; conditions: D-compounds panel data; 1 μM ATP
Method: as §1

BTK-WT = target: T3, BTK-WT (Homo sapiens, UniProt Q06187); test: Btk in vitro inhibitory activity (one of Method A TR-FRET, Method B electrophoretic mobility shift, Method C radiometric filter binding); conditions: D-compounds panel data; read-out: IC50 BTK-WT
T3 construct: purified from insect cells as a full-length construct containing an N-terminal 6X-His tag; His6 (N); made in house; host or cells: insect cells (baculovirus Sf21 in Method B)
T3 sequence (Q06187 whole entry): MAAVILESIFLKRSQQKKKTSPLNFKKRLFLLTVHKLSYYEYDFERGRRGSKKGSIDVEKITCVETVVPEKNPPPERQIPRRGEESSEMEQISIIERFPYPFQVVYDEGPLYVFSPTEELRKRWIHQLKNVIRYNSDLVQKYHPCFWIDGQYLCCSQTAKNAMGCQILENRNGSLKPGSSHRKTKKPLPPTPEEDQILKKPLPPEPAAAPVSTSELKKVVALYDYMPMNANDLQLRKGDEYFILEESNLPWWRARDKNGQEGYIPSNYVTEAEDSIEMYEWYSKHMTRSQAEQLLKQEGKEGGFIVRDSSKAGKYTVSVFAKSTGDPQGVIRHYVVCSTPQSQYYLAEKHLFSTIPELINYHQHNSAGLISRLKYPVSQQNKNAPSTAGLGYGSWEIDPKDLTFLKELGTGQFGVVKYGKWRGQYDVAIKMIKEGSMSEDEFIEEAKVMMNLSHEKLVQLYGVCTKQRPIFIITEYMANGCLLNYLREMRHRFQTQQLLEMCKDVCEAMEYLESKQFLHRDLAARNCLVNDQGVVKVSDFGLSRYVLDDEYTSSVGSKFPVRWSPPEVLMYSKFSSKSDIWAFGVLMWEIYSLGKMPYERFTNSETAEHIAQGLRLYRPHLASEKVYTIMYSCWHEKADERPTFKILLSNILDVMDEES

Chain of SRC (P12931 whole entry): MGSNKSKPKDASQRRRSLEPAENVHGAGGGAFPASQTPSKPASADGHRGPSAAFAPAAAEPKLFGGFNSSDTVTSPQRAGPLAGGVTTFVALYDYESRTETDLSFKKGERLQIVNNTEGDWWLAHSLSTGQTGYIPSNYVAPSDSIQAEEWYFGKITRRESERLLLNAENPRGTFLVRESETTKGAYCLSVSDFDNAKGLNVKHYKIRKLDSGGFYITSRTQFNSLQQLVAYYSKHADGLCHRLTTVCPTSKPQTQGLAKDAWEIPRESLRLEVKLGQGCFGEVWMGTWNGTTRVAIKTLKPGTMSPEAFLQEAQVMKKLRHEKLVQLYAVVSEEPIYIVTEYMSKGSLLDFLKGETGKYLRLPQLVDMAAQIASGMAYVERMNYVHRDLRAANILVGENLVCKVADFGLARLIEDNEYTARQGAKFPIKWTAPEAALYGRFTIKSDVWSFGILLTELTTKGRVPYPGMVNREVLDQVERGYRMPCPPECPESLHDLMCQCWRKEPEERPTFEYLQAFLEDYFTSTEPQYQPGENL
Chain of LCK (P06239 whole entry): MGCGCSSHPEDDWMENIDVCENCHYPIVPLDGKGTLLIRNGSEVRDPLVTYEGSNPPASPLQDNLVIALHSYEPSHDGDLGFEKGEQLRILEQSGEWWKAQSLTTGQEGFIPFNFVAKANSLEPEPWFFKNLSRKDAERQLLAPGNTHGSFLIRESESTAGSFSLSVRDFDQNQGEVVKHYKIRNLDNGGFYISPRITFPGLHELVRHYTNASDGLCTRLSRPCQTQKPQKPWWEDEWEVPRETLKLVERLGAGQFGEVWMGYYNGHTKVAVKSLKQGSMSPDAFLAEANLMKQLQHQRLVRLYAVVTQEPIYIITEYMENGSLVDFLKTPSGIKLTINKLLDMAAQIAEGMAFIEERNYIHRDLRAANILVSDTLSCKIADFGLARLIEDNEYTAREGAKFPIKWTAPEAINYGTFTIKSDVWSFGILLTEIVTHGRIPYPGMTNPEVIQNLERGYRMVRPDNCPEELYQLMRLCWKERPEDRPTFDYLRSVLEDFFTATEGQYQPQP

SMILES | IC50 (TEC) | IC50 (ITK) | IC50 (LCK) | IC50 (SRC) | IC50 (BTK-WT)
Cn1cc(Nc2nc(N3CC[C@@H](O)[C@H](NC(=O)c4ccc(C5CC5)cc4)C3)cnc2C(N)=O)cn1 (racemic) [Example D-26, (racemic)-trans-5-[3-(4-cyclopropylbenzamido)-4-hydroxypiperidin-1-yl]-3-[(1-methyl-1H-pyrazol-4-yl)amino]pyrazine-2-carboxamide] | 100 to 1000 nM | 1000 to 10000 nM | 1000 to 10000 nM | 1000 to 10000 nM | 10 to 100 nM
Cn1cc(Nc2nc(N3C[C@H](CO)C[C@H](NC(=O)c4ccc(C5CC5)cc4)C3)cnc2C(N)=O)cn1 (racemic) [Example D-43, (racemic)-cis-5-[3-(4-cyclopropylbenzamido)-5-(hydroxymethyl)piperidin-1-yl]-3-[(1-methyl-1H-pyrazol-4-yl)amino]pyrazine-2-carboxamide] | 10 to 100 nM | 100 to 1000 nM | 100 to 1000 nM | 100 to 1000 nM | ≤ 10 nM
CN(C)C(=O)N1CC[C@@H]2[C@H]1CCCN2c1cnc(C(N)=O)c(Nc2cnn(C)c2)n1 (racemic) [Example D-50, (racemic)-cis-5-[1-(dimethylcarbamoyl)-octahydro-1H-pyrrolo[3,2-b]pyridin-4-yl]-3-[(1-methyl-1H-pyrazol-4-yl)amino]pyrazine-2-carboxamide] | 100 to 1000 nM | 1000 to 10000 nM | 1000 to 10000 nM | 100 to 1000 nM | 10 to 100 nM
Cn1cc(Nc2nc(N3CCC[C@@H]4[C@H]3CCN4C(=O)c3ccccc3)cnc2C(N)=O)cn1 (racemic) [Example D-54, (racemic)-cis-5-{1-benzoyl-octahydro-1H-pyrrolo[3,2-b]pyridin-4-yl}-3-[(1-methyl-1H-pyrazol-4-yl)amino]pyrazine-2-carboxamide] | 100 to 1000 nM | 1000 to 10000 nM | 100 to 1000 nM | 100 to 1000 nM | 10 to 100 nM
CN(C)C(=O)N[C@H]1CCCN(c2cnc(C(N)=O)c(Nc3ccc4ncccc4c3)n2)[C@@H]1CO (racemic) [Example D-64, trans 5-[3-[(dimethylcarbamoyl)amino]-2-(hydroxymethyl)piperidin-1-yl]-3-[(quinolin-6-yl)amino]pyrazine-2-carboxamide] | 1000 to 10000 nM | > 10000 nM | > 10000 nM | > 10000 nM | 1000 to 10000 nM
CN(C)C(=O)N[C@H]1CCCN(c2cnc(C(N)=O)c(Nc3ccc4ncccc4c3)n2)[C@H]1CO (racemic) [Example D-65, cis 5-[3-[(dimethylcarbamoyl)amino]-2-(hydroxymethyl)piperidin-1-yl]-3-[(quinolin-6-yl)amino]pyrazine-2-carboxamide] | 1000 to 10000 nM | > 10000 nM | > 10000 nM | 1000 to 10000 nM | 100 to 1000 nM
Cn1cc(Nc2nc(N3CCC(NC(=O)c4ccc(C5CC5)cc4)C(O)C3)cnc2C(N)=O)cn1 (single isomer, unassigned) [Example D-28, Trans-5-[4-(4-cyclopropylbenzamido)-3-hydroxypiperidin-1-yl]-3-[(1-methyl-1H-pyrazol-4-yl)amino]pyrazine-2-carboxamide] | > 10000 nM | 1000 to 10000 nM | > 10000 nM | 1000 to 10000 nM | 1000 to 10000 nM
Cn1cc(Nc2nc(N3CCC(NC(=O)c4ccc(C5CC5)cc4)C(O)C3)cnc2C(N)=O)cn1 (single isomer, unassigned) [Example D-29, Trans-5-[4-(4-cyclopropylbenzamido)-3-hydroxypiperidin-1-yl]-3-[(1-methyl-1H-pyrazol-4-yl)amino]pyrazine-2-carboxamide] | 1000 to 10000 nM | 1000 to 10000 nM | > 10000 nM | 1000 to 10000 nM | 100 to 1000 nM
C[C@@H]1[C@H](NC(=O)c2ccc(C3CC3)cc2F)CCCN1c1cnc(C(N)=O)c(Nc2cnn(C)c2)n1 [Example D-1, 5-[(2R,3R)-3-(4-cyclopropyl-2-fluorobenzamido)-2-methylpiperidin-1-yl]-3-[(1-methyl-1H-pyrazol-4-yl)amino]pyrazine-2-carboxamide] | 10 to 100 nM | 100 to 1000 nM | 1000 to 10000 nM | 100 to 1000 nM | ≤ 10 nM
Cc1cc(Nc2nc(N3CCC[C@@H](NC(=O)c4ccc(C5CC5)cc4F)C3)cnc2C(N)=O)on1 [Example D-2, 5-[(3R)-3-(4-cyclopropyl-2-fluorobenzamido)piperidin-1-yl]-3-[(3-methyl-1,2-oxazol-5-yl)amino]pyrazine-2-carboxamide] | 1000 to 10000 nM | > 10000 nM | > 10000 nM | 1000 to 10000 nM | 100 to 1000 nM
NC(=O)c1ncc(N2CCC[C@@H](NC(=O)c3ccc(C4CC4)cc3F)C2)nc1Nc1cc(-c2ccccc2)ns1 [Example D-3, 5-[(3R)-3-(4-cyclopropyl-2-fluorobenzamido)piperidin-1-yl]-3-[(3-phenyl-1,2-thiazol-5-yl)amino]pyrazine-2-carboxamide] | > 10000 nM | > 10000 nM | > 10000 nM | > 10000 nM | > 10000 nM
Cc1ncc(Nc2nc(N3CCC[C@@H](NC(=O)c4ccc(C5CC5)cc4F)C3)cnc2C(N)=O)s1 [Example D-4, 5-[(3R)-3-(4-cyclopropyl-2-fluorobenzamido)piperidin-1-yl]-3-[(2-methyl-1,3-thiazol-5-yl)amino]pyrazine-2-carboxamide] | 100 to 1000 nM | 1000 to 10000 nM | > 10000 nM | > 10000 nM | 10 to 100 nM
C[C@@H]1[C@H](N2Cc3cc(Br)ccc3C2=O)CCCN1c1cnc(C(N)=O)c(Nc2cnn(C)c2)n1 [Example D-27, 5-[(2R,3R)-3-(5-bromo-1-oxo-2,3-dihydro-1H-isoindol-2-yl)-2-methylpiperidin-1-yl]-3-[(1-methyl-1H-pyrazol-4-yl)amino]pyrazine-2-carboxamide] | ≤ 10 nM | 100 to 1000 nM | 100 to 1000 nM | 10 to 100 nM | ≤ 10 nM
C[C@H]1C[C@@H](NC(=O)c2ccc(C3CC3)cc2)CN(c2cnc(C(N)=O)c(Nc3cnn(C)c3)n2)C1 [Example D-30, 5-[(3R,5S)-3-(4-cyclopropylbenzamido)-5-methylpiperidin-1-yl]-3-[(1-methyl-1H-pyrazol-4-yl)amino]pyrazine-2-carboxamide] | 10 to 100 nM | 1000 to 10000 nM | 100 to 1000 nM | 100 to 1000 nM | ≤ 10 nM
C[C@@H]1C[C@@H](NC(=O)c2ccc(C3CC3)cc2)CN(c2cnc(C(N)=O)c(Nc3cnn(C)c3)n2)C1 [Example D-31, 5-[(3R,5R)-3-(4-cyclopropylbenzamido)-5-methylpiperidin-1-yl]-3-[(1-methyl-1H-pyrazol-4-yl)amino]pyrazine-2-carboxamide] | 100 to 1000 nM | 1000 to 10000 nM | 1000 to 10000 nM | 100 to 1000 nM | 10 to 100 nM
C[C@@H]1C[C@H](NC(=O)c2ccc(C3CC3)cc2)CN(c2cnc(C(N)=O)c(Nc3cnn(C)c3)n2)C1 [Example D-32, 5-[(3S,5R)-3-(4-cyclopropylbenzamido)-5-methylpiperidin-1-yl]-3-[(1-methyl-1H-pyrazol-4-yl)amino]pyrazine-2-carboxamide] | 100 to 1000 nM | > 10000 nM | 1000 to 10000 nM | > 10000 nM | 100 to 1000 nM

— patent US20210070748A1, “INHIBITORS OF BRUTONS TYROSINE KINASE” (Pharmacyclics LLC, priority 2015, published 2021)
